# According to ChEMBL document CHEMBL4184320, “Optimization of Selective Mitogen-Activated Protein Kinase Interacting Kinases 1 and 2 Inhibitors for the Treatment of Blast Crisis Leukemia” (J Med Chem, 2018):
# Calls of active or inactive are those of the source. No cut-off for these calls is given here.
# Columns and labels:
# K562 [1] = experiment: Antitumor activity against human K562 cells overexpressing GFP-fussed full length mouse eIF4E xenografted in SCID mouse assessed as tumor growth inhibition at 2.5 mg/kg, po qd administered via gavage for 5 days on 2 days off per cycle for 2 cycles relative to control; type: functional; conditions: read-out: TGI
# [2] = Octanol-phosphate buffer partition coefficient, logD of compound at pH 7.4 by HPLC-UV analysis; type: physicochemical
# [3] = target: MAP kinase-interacting serine/threonine-protein kinase 2 (Homo sapiens, UniProt Q9HBH9)
# Description: Inhibition of GST-tagged MNK2 (72 to 385 residues) (unknown origin) expressed in Escherichia coli BL21(DE3) using JH3 peptide as substrate preincubated for 10 mins followed by substrate and ATP addition measured after 60 mins
# [4] = target: Platelet-derived growth factor receptor alpha (Homo sapiens) (UniProt P16234); experiment: Inhibition of wild-type human partial length PDGFRA (V575 to D1002 residues) expressed in mammalian expression system at 1 uM by Kinomescan method relative to control
# [5] = target: Receptor-type tyrosine-protein kinase FLT3 (Homo sapiens) (UniProt P36888); experiment: Inhibition of wild-type human partial length FLT3 (V592 to Y969 residues) expressed in bacterial expression system at 1 uM by Kinomescan method relative to control
# [6] = target: Mast/stem cell growth factor receptor Kit (Homo sapiens) (UniProt P10721); experiment: Inhibition of wild-type human partial length KIT (I571 to D952 residues) expressed in bacterial expression system at 1 uM by Kinomescan method relative to control
# [7] = Apparent permeability of the compound across apical side to basolateral side in human Caco2 cells by LC-MS/MS analysis; type: ADME, cell-based; conditions: Caco-2
# in vitro [8] = conditions: mouse, liver microsomes
# Description: Half life in mouse liver microsomes at 1 uM in presence of NADPH by LC-MS/MS analysis
# [9] = Clearance in CD-1 mouse at 1 mg/kg, iv administered as single dose by LC-MS/MS analysis; type: ADME, organism-based; conditions: in vivo
# [10] = target: Platelet-derived growth factor receptor beta (Homo sapiens) (UniProt P09619); experiment: Inhibition of wild-type human partial length PDGFRB (V582 to Y1009 residues) expressed in bacterial expression system at 1 uM by Kinomescan method relative to control
# [11] = Half life in CD-1 mouse at 1 mg/kg, iv administered as single dose by LC-MS/MS analysis; type: ADME, organism-based; conditions: in vivo
# [12] = Half life in CD-1 mouse at 5 mg/kg, po administered via gavage as single dose by LC-MS/MS analysis; type: ADME, organism-based; conditions: in vivo
# Cytochrome P450 2D6 = Cytochrome P450 2D6 (Homo sapiens, UniProt P10635); experiment: Inhibition of CYP2D6 in human liver microsomes using dextromethorphan as substrate preincubated for 5 mins followed by NADPH addition by LC-MS/MS analysis; type: ADME
# [13] = target: MAP kinase-interacting serine/threonine-protein kinase 1/2 (Homo sapiens, UniProt Q9HBH9+Q9BUB5); experiment: Inhibition of MNK1/2 in human HeLa cells assessed as decrease in eIF4E phosphorylation at Ser209 after 2 hrs by AlphaScreen assay; type: cell-based
# Homo sapiens [14] = organism: Homo sapiens; experiment: Antiproliferative activity against human GK5 cells after 48 hrs by CellTiter-Glo luminescence assay; type: functional, cell-based
# [15] = Protein binding in human plasma at […] after 5 hrs by LC-MS/MS analysis; type: ADME, cell-free; conditions: read-out: PPB (converted)
# in vitro [16] = conditions: rat, liver microsomes
# Description: Half life in rat liver microsomes at 1 uM in presence of NADPH by LC-MS/MS analysis
# [17] = Thermodynamic solubility of the compound at pH 4 to 7.4 pION buffer after 18 hrs by UV spectrophotometric analysis; type: physicochemical; conditions: read-out: Therm_solubility
# [18] = target: Platelet-derived growth factor receptor alpha (Homo sapiens) (UniProt P16234); experiment: Inhibition of wild-type human partial length PDGFRA (V575 to D1002 residues) expressed in mammalian expression system by Kinomescan method
# [19] = target: Receptor-type tyrosine-protein kinase FLT3 (Homo sapiens) (UniProt P36888); experiment: Inhibition of wild-type human partial length FLT3 (V592 to Y969 residues) expressed in bacterial expression system by Kinomescan method
# Homo sapiens [20] = organism: Homo sapiens; experiment: Antiproliferative activity against human AHH1 cells after 48 hrs by CellTiter-Glo luminescence assay; type: functional, cell-based
# [21] = Half life in dog liver microsomes at 1 uM in presence of NADPH by LC-MS/MS analysis; type: ADME, Canis lupus familiaris, microsome
# [22] = target: Serine/threonine-protein kinase 17A (Homo sapiens) (UniProt Q9UEE5); experiment: Inhibition of wild-type human partial length DRAK1 (R32 to E363 residues) expressed in bacterial expression system at 1 uM by Kinomescan method relative to control
# [23] = AUClast in CD-1 mouse at 1 mg/kg, iv administered as single dose by LC-MS/MS analysis; type: ADME, organism-based; design: dose 1 mg/kg, time 0 - last, route intravenous; conditions: in vivo
# [24] = target: Phosphorylase b kinase gamma catalytic chain, liver/testis isoform (Homo sapiens) (UniProt P15735); experiment: Inhibition of wild-type human partial length PHKG2 (M1 to W300 residues) expressed in bacterial expression system at 1 uM by Kinomescan method relative to control
# P3HR-1 = experiment: Antiproliferative activity against human P3HR1 cells after 48 hrs by CellTiter-Glo luminescence assay; type: functional, cell-based
# [25] = Protein binding in mouse plasma at […] after 5 hrs by LC-MS/MS analysis; type: ADME, cell-free; conditions: read-out: PPB (converted)
# [26] = target: SRSF protein kinase 3 (Homo sapiens) (UniProt Q9UPE1); experiment: Inhibition of human SRPK3 (P41 to P567 residues) expressed in bacterial expression system at 1 uM by KINOMEscan assay relative to control
# [27] = Permeability of the compound by PAMPA; type: ADME; conditions: read-out: permeability
# [28] = Cmax in CD-1 mouse at 5 mg/kg, po administered via gavage as single dose by LC-MS/MS analysis; type: ADME, organism-based; design: dose 5 mg/kg, route oral; conditions: in vivo
# Cytochrome P450 3A4 = Cytochrome P450 3A4 (Homo sapiens, UniProt P08684)
# Description: Inhibition of CYP3A4 in human liver microsomes using midazolam as substrate preincubated for 5 mins followed by NADPH addition measured after 5 mins by LC-MS/MS analysis
# [29] = Oral bioavailability in CD-1 mouse at 5 mg/kg administered via gavage as single dose by LC-MS/MS analysis; type: ADME, organism-based; conditions: in vivo
# [30] = AUClast in CD-1 mouse at 5 mg/kg, po administered via gavage as single dose by LC-MS/MS analysis; type: ADME, organism-based; design: dose 5 mg/kg, time 0 - last, route oral; conditions: in vivo
# [31] = target: MAP kinase-interacting serine/threonine-protein kinase 1 (Homo sapiens, UniProt Q9BUB5)
# Description: Inhibition of GST-tagged MNK1 (37 to 341 residues) (unknown origin) expressed in Escherichia coli BL21(DE3) using JH3 peptide as substrate preincubated for 10 mins followed by substrate and ATP addition measured after 60 mins
# DOHH-2 = experiment: Antiproliferative activity against human DOHH2 cells after 48 hrs by CellTiter-Glo luminescence assay; type: functional, cell-based
# [32] = Initial concentration in CD-1 mouse at 1 mg/kg, iv administered as single dose by LC-MS/MS analysis; type: ADME, organism-based; conditions: in vivo
# in vitro [33] = conditions: human, liver microsomes
# Description: Half life in human liver microsomes at 1 uM in presence of NADPH by LC-MS/MS analysis
# [34] = Oral bioavailability in mouse at 50 mg/kg; type: ADME, organism-based; conditions: in vivo
# [35] = target: Dual specificity mitogen-activated protein kinase kinase 1 (Homo sapiens) (UniProt Q02750); experiment: Inhibition of human MEK1 (M1 to V393 residues) expressed in mammalian expression system at 1 uM by KINOMEscan assay relative to control
# [36] = test system: Tyrosine-protein kinase ABL1 (Homo sapiens), P00519 [E255K]; experiment: Inhibition of human ABL1 E255K mutant (S229 to K512 residues) expressed in mammalian expression system at 1 uM by KINOMEscan assay relative to control
# [37] = target: Dual specificity mitogen-activated protein kinase kinase; MEK1/2 (Homo sapiens) (UniProt P36507+Q02750); experiment: Inhibition of MEK (unknown origin) at 1 uM by KINOMEscan assay relative to control; type: protein assay
# [38] = target: Proto-oncogene tyrosine-protein kinase receptor Ret (Homo sapiens) (UniProt P07949); experiment: Inhibition of human RET (E713 to D1014 residues) expressed in bacterial expression system at 1 uM by KINOMEscan assay relative to control
# [39] = target: Dual specificity mitogen-activated protein kinase kinase 2 (Homo sapiens) (UniProt P36507); experiment: Inhibition of human MEK2 (M1 to V400 residues) expressed in mammalian expression system at 1 uM by KINOMEscan assay relative to control
# [40] = target: Tyrosine-protein kinase ABL1 (Homo sapiens) (UniProt P00519); experiment: Inhibition of human ABL1 (S229 to K512 residues) expressed in mammalian expression system at 1 uM by KINOMEscan assay relative to control
# in vivo = conditions: CD-1, mouse, po, 5 mg/kg
# Description: Tmax in CD-1 mouse at 5 mg/kg, po administered via gavage as single dose by LC-MS/MS analysis
# Mus musculus [41] = experiment: Down regulation of phosphorylated CRKL in CB17 SCID mouse xenografted with human K562 cells overexpressing GFP-fussed full length mouse eIF4E at 100 mg/kg, po administered as single dose up to 8 hrs cotreated with 2.5 mg/kg dasatinib by Western blot; type: functional, organism-based
# Mus musculus [42] = experiment: Toxicity in SCID mouse xenografted with human K562 cells overexpressing GFP-fussed full length mouse eIF4E assessed as weight loss at 25 to 100 mg/kg, po qd administered via gavage for 14 days cotreated with 2.5 mg/kg dasatinib for 1 hr post dose; type: organism-based; conditions: in vivo
# Mus musculus [43] = experiment: Down regulation of phosphorylated eIF4E in CB17 SCID mouse xenografted with human K562 cells overexpressing GFP-fussed full length mouse eIF4E at 100 mg/kg, po administered as single dose up to 8 hrs cotreated with 2.5 mg/kg dasatinib by Western blot; type: functional, organism-based
# Mus musculus [44] = experiment: Toxicity in NOD/SCID mouse assessed as change in weight loss up to 200 mg/kg, po administered gavage treated for 7 consecutive days measured for 7 days post last dose; type: organism-based; conditions: in vivo, 168 h
# K562 [45] = experiment: Antitumor activity against human K562 cells overexpressing GFP-fussed full length mouse eIF4E xenografted in SCID mouse assessed as increase in tumor free animal at 100 mg/kg, po administered as qd via gavage for 14 days cotreated with 2.5 mg/kg dasatinib for 1 hr post dose; type: functional, organism-based
# Mus musculus [46] = experiment: Toxicity in NOD/SCID mouse assessed as clinical adverse effect up to 200 mg/kg, po administered gavage treated for 7 consecutive days measured for 7 days post last dose; type: organism-based; conditions: in vivo, 168 h
# K562 [47] = experiment: Antitumor activity against human K562 cells overexpressing GFP-fussed full length mouse eIF4E xenografted in SCID mouse assessed as tumor growth inhibition administered as qd via gavage for 14 days cotreated with 2.5 mg/kg dasatinib for 1 hr post dose; type: functional, organism-based
# K562 [48] = experiment: Antitumor activity against human K562 cells overexpressing GFP-fussed full length mouse eIF4E xenografted in SCID mouse assessed as tumor growth inhibition at 100 mg/kg, po qd administered via gavage for 14 days relative to control; conditions: 336 h, read-out: TGI
# Cytochrome P450 3A4, sequence (P08684 whole entry): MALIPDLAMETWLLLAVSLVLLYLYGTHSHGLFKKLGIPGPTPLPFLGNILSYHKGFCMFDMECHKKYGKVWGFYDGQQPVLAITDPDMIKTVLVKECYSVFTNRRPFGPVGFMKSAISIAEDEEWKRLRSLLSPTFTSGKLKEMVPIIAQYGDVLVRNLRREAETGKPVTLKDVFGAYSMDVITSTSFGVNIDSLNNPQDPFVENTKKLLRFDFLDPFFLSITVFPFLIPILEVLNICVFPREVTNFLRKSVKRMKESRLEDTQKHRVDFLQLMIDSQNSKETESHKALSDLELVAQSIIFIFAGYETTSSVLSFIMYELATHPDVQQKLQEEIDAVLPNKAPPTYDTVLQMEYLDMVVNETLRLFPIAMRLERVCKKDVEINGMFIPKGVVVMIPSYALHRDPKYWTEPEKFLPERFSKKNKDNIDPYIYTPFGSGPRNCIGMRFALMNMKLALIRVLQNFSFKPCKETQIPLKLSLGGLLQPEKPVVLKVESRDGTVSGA
# Cytochrome P450 2D6, sequence (P10635 whole entry): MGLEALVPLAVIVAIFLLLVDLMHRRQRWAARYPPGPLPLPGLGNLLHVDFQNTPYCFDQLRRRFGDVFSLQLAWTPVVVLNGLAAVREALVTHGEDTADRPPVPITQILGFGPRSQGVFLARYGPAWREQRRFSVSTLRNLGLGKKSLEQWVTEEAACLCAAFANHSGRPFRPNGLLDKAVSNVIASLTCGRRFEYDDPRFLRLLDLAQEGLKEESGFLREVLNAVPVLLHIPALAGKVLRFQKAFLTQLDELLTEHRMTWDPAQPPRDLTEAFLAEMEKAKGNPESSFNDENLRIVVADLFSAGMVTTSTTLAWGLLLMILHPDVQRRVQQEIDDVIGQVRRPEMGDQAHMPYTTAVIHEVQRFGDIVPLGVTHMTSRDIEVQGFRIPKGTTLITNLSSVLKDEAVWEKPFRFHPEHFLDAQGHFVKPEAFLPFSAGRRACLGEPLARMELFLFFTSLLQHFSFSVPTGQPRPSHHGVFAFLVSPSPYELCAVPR
# Receptor-type tyrosine-protein kinase FLT3 (Homo sapiens), sequence (P36888 whole entry, the tested form may be a part): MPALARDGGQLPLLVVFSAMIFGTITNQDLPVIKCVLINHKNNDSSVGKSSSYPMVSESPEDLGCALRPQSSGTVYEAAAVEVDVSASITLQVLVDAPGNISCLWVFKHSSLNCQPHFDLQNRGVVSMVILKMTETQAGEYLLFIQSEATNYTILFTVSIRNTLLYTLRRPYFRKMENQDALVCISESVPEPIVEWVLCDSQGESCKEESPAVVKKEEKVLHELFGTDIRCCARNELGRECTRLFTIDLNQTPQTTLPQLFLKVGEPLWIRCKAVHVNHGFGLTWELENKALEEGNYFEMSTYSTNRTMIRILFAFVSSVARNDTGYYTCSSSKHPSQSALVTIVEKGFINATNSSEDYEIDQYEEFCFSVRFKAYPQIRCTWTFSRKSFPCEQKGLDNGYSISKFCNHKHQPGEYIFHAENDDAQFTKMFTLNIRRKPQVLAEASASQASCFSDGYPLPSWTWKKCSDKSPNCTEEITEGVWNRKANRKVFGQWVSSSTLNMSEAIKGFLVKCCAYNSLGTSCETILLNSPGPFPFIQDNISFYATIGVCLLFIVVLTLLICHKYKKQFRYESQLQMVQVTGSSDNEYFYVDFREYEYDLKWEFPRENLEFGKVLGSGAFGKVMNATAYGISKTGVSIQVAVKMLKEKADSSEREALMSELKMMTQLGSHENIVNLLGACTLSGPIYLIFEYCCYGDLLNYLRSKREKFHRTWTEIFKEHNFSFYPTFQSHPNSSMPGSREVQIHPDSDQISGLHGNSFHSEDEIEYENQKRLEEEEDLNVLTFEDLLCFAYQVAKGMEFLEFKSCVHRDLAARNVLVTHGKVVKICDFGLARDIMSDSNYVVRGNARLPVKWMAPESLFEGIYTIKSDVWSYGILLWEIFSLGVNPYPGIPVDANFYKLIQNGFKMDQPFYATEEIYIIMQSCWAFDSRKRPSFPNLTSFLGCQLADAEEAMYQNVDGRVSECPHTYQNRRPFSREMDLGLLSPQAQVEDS
# Dual specificity mitogen-activated protein kinase kinase; MEK1/2 (Homo sapiens), sequence (P36507 whole entry, looked up, the tested form may be a part): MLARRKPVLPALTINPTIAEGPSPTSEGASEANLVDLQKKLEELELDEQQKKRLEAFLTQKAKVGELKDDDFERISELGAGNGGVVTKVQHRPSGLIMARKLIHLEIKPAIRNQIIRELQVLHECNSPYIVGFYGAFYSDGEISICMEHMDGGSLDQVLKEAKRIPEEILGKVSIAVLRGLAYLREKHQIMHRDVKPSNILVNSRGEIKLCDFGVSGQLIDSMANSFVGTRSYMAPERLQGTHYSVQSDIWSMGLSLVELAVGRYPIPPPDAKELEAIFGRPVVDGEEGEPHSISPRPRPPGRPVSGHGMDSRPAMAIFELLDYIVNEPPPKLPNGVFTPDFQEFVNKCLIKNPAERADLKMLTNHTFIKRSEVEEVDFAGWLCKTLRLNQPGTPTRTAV
# Dual specificity mitogen-activated protein kinase kinase; MEK1/2 (Homo sapiens), sequence (Q02750 whole entry, looked up, the tested form may be a part): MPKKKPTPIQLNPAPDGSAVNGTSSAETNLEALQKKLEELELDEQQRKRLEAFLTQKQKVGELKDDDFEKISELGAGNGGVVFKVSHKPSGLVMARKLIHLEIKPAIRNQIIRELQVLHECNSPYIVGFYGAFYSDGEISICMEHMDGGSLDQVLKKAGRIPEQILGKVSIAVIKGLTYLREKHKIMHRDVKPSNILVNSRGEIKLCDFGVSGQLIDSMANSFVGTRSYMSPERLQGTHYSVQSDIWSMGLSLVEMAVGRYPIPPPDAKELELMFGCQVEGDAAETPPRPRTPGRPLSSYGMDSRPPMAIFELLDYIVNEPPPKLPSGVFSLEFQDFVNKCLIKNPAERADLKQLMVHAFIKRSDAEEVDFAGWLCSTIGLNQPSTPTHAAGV
# Platelet-derived growth factor receptor alpha (Homo sapiens), sequence (P16234 whole entry, the tested form may be a part): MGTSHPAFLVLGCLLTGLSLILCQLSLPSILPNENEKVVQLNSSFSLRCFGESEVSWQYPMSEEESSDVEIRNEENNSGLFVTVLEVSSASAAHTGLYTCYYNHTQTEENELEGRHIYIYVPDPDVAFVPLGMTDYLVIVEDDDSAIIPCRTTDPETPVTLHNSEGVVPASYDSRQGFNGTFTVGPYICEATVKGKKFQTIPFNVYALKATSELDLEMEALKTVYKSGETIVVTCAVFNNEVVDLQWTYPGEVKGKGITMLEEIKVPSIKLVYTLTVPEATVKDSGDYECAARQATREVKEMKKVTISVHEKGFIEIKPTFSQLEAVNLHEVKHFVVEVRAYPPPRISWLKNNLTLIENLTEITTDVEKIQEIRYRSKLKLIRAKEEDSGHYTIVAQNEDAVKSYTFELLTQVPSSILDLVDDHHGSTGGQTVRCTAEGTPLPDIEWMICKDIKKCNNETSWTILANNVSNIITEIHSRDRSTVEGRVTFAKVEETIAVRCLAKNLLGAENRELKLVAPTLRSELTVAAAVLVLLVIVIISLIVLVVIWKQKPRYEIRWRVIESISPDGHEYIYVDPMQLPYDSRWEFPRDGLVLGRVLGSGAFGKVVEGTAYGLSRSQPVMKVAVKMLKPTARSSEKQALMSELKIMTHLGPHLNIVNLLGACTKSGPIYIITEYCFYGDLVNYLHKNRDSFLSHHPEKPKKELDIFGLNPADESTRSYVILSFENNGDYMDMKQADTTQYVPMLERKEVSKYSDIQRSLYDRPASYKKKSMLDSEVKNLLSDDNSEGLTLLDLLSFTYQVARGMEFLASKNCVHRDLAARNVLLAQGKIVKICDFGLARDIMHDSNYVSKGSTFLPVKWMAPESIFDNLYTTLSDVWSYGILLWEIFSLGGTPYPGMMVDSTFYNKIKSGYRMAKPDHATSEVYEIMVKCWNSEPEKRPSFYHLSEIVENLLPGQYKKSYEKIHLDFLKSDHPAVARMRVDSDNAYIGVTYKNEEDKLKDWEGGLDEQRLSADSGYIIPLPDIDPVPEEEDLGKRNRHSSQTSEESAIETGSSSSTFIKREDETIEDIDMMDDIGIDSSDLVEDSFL
# MAP kinase-interacting serine/threonine-protein kinase 1, sequence (Q9BUB5 whole entry): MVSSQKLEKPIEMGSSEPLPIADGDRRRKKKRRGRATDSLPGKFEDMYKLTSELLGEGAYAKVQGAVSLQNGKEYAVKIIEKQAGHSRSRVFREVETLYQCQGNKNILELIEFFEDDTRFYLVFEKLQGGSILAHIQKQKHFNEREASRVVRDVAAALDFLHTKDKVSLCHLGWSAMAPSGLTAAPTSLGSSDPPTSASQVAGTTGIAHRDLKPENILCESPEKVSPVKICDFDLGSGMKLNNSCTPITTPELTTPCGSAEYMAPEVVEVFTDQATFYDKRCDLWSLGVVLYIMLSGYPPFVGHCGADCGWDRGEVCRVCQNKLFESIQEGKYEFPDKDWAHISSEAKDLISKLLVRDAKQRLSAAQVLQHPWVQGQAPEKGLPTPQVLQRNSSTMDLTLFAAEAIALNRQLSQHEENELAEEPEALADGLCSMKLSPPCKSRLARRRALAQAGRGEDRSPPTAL
# Phosphorylase b kinase gamma catalytic chain, liver/testis isoform (Homo sapiens), sequence (P15735 whole entry, the tested form may be a part, canonical isoform): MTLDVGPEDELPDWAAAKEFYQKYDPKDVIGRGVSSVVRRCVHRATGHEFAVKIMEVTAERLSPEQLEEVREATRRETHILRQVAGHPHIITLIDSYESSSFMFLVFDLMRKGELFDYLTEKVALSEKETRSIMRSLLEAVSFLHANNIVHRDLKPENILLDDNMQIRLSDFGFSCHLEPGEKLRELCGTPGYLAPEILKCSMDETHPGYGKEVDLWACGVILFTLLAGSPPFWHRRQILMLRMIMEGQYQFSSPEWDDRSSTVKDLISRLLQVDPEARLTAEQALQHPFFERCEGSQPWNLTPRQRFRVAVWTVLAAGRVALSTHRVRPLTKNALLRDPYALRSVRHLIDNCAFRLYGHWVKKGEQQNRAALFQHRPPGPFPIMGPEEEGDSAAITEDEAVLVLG
Compound,logD [2],Papp A→B [7] [×10⁻⁶ cm/s],half-life at 1 µM (in vitro [8]) [h],clearance [9] [mL/min/kg],half-life [11] [h],half-life [12] [h],IC50 (Cytochrome P450 2D6) [µM],Activity (Homo sapiens [14]),fraction unbound at 5 h [15],half-life at 1 µM (in vitro [16]) [h],solubility thermodynamic at 18 h [17] [µg/mL],Activity (Homo sapiens [20]),half-life at 1 µM [21] [h],AUC(0-t) [23] [ng·h/mL],Activity (P3HR-1),fraction unbound at 5 h [25],Papp [27] [×10⁻⁶ cm/s],Cmax [28] [ng/mL],IC50 (Cytochrome P450 3A4) [µM],half-life at 1 µM (in vitro [33]) [h],also measured
Cc1nc(Nc2ncc(C(=O)Nc3c(C)cccc3Cl)s2)cc(N2CCN(CCO)CC2)n1 [DASATINIB],,,,,,,,,,,,,,,,,,,,,inhibition in vivo at 2.5 mg/kg (K562 [1]): 88%
N#Cc1ccc(-c2cnc3ccc(-c4ccc(C(=O)N5CCOCC5)cc4)nn23)cc1,2.1,38.5,> 1,2.67,2.32,2.14,> 20,Active,0.001,> 1,1.8,Active,> 1,6120,Active,0.055,30,4400,> 20,0.883,IC50 [3]: 0.041 µM; inhibition [4]: > 65%; inhibition [5]: > 65%; inhibition [6]: > 65%; inhibition [10]: > 65%; IC50 [13]: 0.421 µM; INH [18]: 0.25 µM; INH [19]: 0.88 µM; inhibition [22]: > 65%; inhibition [24]: > 65%; inhibition [26]: > 65%; bioavailability [29]: 79%; AUC(0-t) [30]: 24100 ng·h/mL; IC50 [31]: 0.023 µM; Activity (DOHH-2): Active; C0 [32]: 2940 ng/mL
CN1CCN(C(=O)c2ccc(-c3cn4c(-c5ccc(C#N)cc5)cnc4cn3)cc2)CC1,1.67,6.87,0.617,,,,> 20,,0.016,,> 125,,,,,0.129,102,,> 20,0.683,bioavailability [34]: 48%
Nc1ncnc2[nH]nc(Nc3ccc(F)cc3)c12,,,,,,,,,,,,,,,,,,,,,inhibition [35]: > 99%; inhibition [36]: > 99%; inhibition [37]: > 99%; inhibition [38]: > 99%; inhibition [39]: > 99%; inhibition [40]: > 99%
N#Cc1ccc(-c2cnc3ccc(-c4ccc(C(=O)N5CCOCC5)cc4)cn23)cc1 [TINODASERTIB],2.61,30.5,0.933,9.33,1.7,1.77,> 20,Active,0.003,> 1,55.4,Active,> 1,1760,Active,0.158,74.4,2480,> 20,0.8,Tmax (in vivo): 0.5 h; Activity (Mus musculus [41]): Active; inhibition [37]: > 65%; Activity (Mus musculus [42]): Non-Toxic; Activity (Mus musculus [43]): Active; Activity (Mus musculus [44]): Non-Toxic; Activity (K562 [45]): Active; Activity (Mus musculus [46]): Non-Toxic; TGI (K562 [47]): Dose-dependent effect; bioavailability [29]: 64%; AUC(0-t) [30]: 5480 ng·h/mL; Activity (DOHH-2): Active; C0 [32]: 2380 ng/mL; inhibition in vivo at 100 mg/kg (K562 [48]): 23%
